Our source for the IC50 and Ki values is ChEMBL document CHEMBL1909046, “DrugMatrix in vitro pharmacology data”.

For test [1], the target named is Insulin receptor (Rattus norvegicus, UniProt P15127). The format is cell membranes, Wistar, Liver, Membrane. Note: in other assays of this panel Not Active means under 50% inhibition at 10 µM.
The nature of test [2]: DRUGMATRIX: Potassium Channel [KATP] radioligand binding (ligand: [3H] Glyburide). Type of test: cell membranes, Membrane. Particulars: hit-t15; Not Active = under 50% inhibition at 10 µM.
Test [3] has as its target Mu-type opioid receptor (Homo sapiens, UniProt P35372). Put plainly: DRUGMATRIX: Opiate mu (OP3, MOP) radioligand binding (ligand: [3H] Diprenorphine). Type of test: cell membranes, CHO-K1, Membrane. Particulars: cho-k1; Not Active = under 50% inhibition at 10 µM.
Test [4] in a line: DRUGMATRIX: Atrial Natriuretic Factor (ANF) radioligand binding (ligand: [125I] ANF (rat)). Type of test: cell membranes, Cavia porcellus, Dunkin-Hartley, Adrenal gland, Membrane. The conditions noted are these: Not Active = under 50% inhibition at 10 µM.
For test [5], the target named is T1, Alpha-1D adrenergic receptor (Homo sapiens, UniProt P25100). Note: in other assays of this panel Not Active means under 50% inhibition at 10 µM.
T1 sequence (P25100 whole entry): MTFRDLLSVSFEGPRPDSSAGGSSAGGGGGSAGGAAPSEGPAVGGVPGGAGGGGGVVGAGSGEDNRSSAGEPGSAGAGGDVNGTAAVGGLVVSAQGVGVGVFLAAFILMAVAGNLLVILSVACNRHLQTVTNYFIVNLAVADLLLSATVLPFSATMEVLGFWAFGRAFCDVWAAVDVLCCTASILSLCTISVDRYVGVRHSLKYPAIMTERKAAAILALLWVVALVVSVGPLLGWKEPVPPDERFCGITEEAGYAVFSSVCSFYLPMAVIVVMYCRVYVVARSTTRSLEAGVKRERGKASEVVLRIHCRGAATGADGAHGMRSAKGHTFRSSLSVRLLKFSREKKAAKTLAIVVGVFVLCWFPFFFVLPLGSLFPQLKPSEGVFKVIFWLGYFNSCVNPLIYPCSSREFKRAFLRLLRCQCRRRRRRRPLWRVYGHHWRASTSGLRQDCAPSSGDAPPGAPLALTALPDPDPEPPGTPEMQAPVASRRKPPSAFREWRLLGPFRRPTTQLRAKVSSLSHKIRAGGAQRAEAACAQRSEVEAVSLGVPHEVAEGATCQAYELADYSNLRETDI
Type of test: cell membranes, HEK293, Membrane. The conditions noted are these: hek293.

Test [6] deals with Tyrosine-protein kinase Fyn (Homo sapiens, UniProt P06241). Put plainly: biochemical. The format is cell-based, Insect cells.
Tyrosine-protein kinase Fyn, sequence (P06241 whole entry): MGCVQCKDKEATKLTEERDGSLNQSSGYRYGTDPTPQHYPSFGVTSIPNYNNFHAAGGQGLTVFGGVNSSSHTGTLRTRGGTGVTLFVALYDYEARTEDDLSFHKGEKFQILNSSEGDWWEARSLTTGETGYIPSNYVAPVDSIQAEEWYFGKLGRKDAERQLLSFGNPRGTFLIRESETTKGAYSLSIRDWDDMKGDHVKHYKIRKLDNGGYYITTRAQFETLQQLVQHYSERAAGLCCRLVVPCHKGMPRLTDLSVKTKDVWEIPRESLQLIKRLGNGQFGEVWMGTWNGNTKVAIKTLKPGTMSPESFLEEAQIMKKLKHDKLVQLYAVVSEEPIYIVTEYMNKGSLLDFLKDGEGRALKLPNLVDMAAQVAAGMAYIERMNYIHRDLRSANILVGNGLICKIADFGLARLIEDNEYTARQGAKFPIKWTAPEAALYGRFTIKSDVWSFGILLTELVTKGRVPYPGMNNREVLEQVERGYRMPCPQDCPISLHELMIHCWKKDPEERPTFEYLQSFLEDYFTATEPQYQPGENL
In test [7] the target is D(1A) dopamine receptor (Homo sapiens, UniProt P21728). Put plainly: DRUGMATRIX: Dopamine D1 radioligand binding (ligand: [3H] SCH-23390). Type of test: cell membranes, CHO, Membrane. The conditions noted are these: cho; Not Active = under 50% inhibition at 10 µM.
D(1A) dopamine receptor, sequence (P21728 whole entry): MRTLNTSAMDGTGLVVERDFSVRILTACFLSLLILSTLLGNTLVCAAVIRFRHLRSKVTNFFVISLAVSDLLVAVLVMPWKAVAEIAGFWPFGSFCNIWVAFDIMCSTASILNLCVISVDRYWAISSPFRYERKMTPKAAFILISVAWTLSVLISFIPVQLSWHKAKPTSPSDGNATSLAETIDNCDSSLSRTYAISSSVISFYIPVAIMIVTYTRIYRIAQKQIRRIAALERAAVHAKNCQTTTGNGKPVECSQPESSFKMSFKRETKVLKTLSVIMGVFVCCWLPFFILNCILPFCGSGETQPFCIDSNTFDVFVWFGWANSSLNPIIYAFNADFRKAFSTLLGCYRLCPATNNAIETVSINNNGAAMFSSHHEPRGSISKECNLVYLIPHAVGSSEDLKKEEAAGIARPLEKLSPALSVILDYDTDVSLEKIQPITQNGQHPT

SMILES strings stand for the structures.

Mu-type opioid receptor, sequence (P35372 whole entry): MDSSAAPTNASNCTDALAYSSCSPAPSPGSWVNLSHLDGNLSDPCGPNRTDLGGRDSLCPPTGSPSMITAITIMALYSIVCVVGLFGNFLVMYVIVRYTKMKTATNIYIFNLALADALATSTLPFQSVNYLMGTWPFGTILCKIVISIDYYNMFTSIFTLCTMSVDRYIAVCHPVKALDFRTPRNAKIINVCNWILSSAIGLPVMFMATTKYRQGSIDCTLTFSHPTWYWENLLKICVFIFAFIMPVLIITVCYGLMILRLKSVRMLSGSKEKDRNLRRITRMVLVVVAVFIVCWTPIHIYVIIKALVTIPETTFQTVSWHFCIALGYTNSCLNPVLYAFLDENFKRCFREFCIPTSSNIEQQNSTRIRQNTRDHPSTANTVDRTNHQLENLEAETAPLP
Insulin receptor, sequence (P15127 27-759 limits assumed): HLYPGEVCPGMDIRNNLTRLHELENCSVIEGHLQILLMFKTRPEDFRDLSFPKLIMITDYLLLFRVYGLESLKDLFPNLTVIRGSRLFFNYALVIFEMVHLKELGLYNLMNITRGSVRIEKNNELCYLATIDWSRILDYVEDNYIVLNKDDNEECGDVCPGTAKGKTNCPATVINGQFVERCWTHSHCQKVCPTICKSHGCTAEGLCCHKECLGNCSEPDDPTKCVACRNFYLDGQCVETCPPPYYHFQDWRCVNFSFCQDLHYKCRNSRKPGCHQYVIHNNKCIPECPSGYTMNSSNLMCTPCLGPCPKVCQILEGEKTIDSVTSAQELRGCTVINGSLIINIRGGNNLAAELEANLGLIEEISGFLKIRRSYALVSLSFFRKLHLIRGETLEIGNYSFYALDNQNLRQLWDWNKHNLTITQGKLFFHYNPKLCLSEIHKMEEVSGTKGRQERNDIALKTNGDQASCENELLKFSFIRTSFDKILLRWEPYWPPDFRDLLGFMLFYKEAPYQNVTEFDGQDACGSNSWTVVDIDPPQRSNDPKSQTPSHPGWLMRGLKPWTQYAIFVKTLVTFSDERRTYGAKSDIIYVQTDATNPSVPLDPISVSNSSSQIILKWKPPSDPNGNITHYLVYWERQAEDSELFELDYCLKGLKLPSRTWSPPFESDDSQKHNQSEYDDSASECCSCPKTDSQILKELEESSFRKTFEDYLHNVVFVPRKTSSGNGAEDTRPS
Insulin receptor, sequence (P15127 764-1383 limits assumed): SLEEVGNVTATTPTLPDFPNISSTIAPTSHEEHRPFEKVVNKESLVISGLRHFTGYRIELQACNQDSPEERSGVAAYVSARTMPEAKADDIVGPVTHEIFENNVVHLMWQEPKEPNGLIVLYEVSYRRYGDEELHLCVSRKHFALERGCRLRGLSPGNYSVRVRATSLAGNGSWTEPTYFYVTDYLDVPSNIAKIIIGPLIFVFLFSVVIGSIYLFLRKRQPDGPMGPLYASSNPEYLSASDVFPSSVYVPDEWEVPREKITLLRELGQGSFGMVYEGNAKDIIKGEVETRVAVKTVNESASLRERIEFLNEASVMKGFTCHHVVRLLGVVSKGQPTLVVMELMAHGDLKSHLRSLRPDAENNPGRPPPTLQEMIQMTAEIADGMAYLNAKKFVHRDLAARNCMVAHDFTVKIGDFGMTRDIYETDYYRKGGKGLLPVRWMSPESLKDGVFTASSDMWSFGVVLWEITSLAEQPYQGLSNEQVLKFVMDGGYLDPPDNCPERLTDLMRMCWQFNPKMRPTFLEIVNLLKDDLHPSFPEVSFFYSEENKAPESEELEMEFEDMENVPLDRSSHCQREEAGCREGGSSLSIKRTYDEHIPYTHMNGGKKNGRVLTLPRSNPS

One may read the IC50 as the point on the concentration scale where inhibition reaches its midpoint. As to `NC(=O)C[S+]([O-])C(c1ccccc1)c1ccccc1` (stereo unspecified) [MODAFINIL], the IC50 entry in test [1], in test [2], in test [3], in test [4], in test [5] and in test [6] (insect cells) was “Not Active” each time. Moreover, the IC50 entry in test [7] is on record as “Not Active”. In addition, the Ki entry in test [2] and in test [4] was “Not Active” in each case.
As to `CCN(CC)CCOCCC1=CCC2CC1C2(C)C` (stereo unspecified) [MYRTECAINE], the half-maximal inhibitory concentration (IC50) entry in test [1], in test [2], in test [3], in test [4], in test [5] and in test [6] (insect cells) was “Not Active” throughout. The IC50 entry in test [7] was “Not Active”. Moreover, the Ki entry in test [2] and in test [4] was “Not Active” throughout.
For the compound `O=C(O)c1cccnc1Nc1cccc(C(F)(F)F)c1` [NIFLUMIC ACID], the half-maximal inhibitory concentration (IC50) result in test [1], in test [2], in test [3], in test [4], in test [5] and in test [6] (insect cells) was “Not Active” in each case. The IC50 result in test [7] was “Not Active”. For the same compound, the Ki entry in test [2] and in test [4] was “Not Active” each time.
Take `O=C(N/N=C/c1ccc([N+](=O)[O-])o1)c1cc([N+](=O)[O-])cc([N+](=O)[O-])c1O` [NIFURSOL]: the half-inhibitory concentration (IC50) entry in test [1], in test [2], in test [3], in test [4], in test [5] and in test [6] (insect cells) was “Not Active” in each case. For the same compound, the IC50 result in test [7] is “Not Active”. The Ki result in test [2] and in test [4] was “Not Active” each time.
For the compound `COC(=O)Nc1nc2ccc(C(=O)c3cccs3)cc2[nH]1` [NOCODAZOLE], the concentration for half-maximal inhibition (IC50) result in test [1], in test [2], in test [3], in test [4], in test [5] and in test [6] (insect cells) was “Not Active” each time. The half-inhibitory concentration (IC50) entry in test [7] was “Not Active”. Also, the Ki result in test [2] and in test [4] was “Not Active” each time.
On to `C#CC1(O)CC[C@H]2[C@@H]3CCC4=CC(=O)CC[C@@H]4[C@H]3CC[C@@]21CC` (stereo partly specified) [NORGESTREL], for which the IC50 entry in test [1], in test [2], in test [3], in test [4], in test [5] and in test [6] (insect cells) was “Not Active” in each case. Besides, the IC50 entry in test [7] is on record as “Not Active”. Besides, the Ki result in test [2] and in test [4] was “Not Active” throughout.
On to `COC(=O)Nc1nc2ccc([S+]([O-])c3ccccc3)cc2[nH]1` (stereo unspecified) [OXFENDAZOLE], for which the IC50 result in test [1], in test [2], in test [3], in test [4], in test [5] and in test [6] (insect cells) was “Not Active” in each case. In addition, the half-maximal inhibitory concentration (IC50) entry in test [7] is reported as “Not Active”. For the same compound, the Ki result in test [2] and in test [4] was “Not Active” each time.
In the case of `CC(=O)O[C@H]1C(=O)[C@@]2(C)[C@H]([C@H](OC(=O)c3ccccc3)[C@]3(O)C[C@H](OC(=O)[C@H](O)[C@@H](NC(=O)c4ccccc4)c4ccccc4)C(C)=C1C3(C)C)[C@]1(OC(C)=O)CO[C@@H]1C[C@@H]2O` [PACLITAXEL], the IC50 entry is “Not Active” in test [1]; “Not Active” in test [2]; “Not Active” in test [3]; “Not Active” in test [4]; “Not Active” in test [5]; 23.9 µM in test [6] (read-out: IC50). Besides, the concentration for half-maximal inhibition (IC50) entry in test [7] is recorded as “Not Active”. The Ki result in test [2] and in test [4] was “Not Active” throughout.
Turning to `CC(C)NCC(O)COc1cccc2[nH]ccc12` (stereo unspecified) [PINDOLOL], the half-inhibitory concentration (IC50) result in test [1], in test [2], in test [3], in test [4], in test [5] and in test [6] (insect cells) was “Not Active” throughout. In addition, the IC50 entry in test [7] was “Not Active”. The Ki entry in test [2] and in test [4] was “Not Active” throughout.
